{"source": "patent US6410588B1", "about": "“Use of cannabinoids as anti-inflammatory agents” (priority 1998, dated 2002)", "key": {"[1]": {"tested_on": "Thioglycollate induced macrophages (Mφ)", "test": "viability of macrophages cultured with CBD", "format": "cell-based, mouse", "details": "8 μg/ml CBD; after 48 hr"}, "IFNγ production": {"tested_on": "IFNγ production", "test": "IFNγ release by PHA-stimulated human PBMC", "format": "cell-based", "details": "PHA 5 μg/ml 72 hours, mean ± SEM", "method": "CBD was dissolved in ethanol/DMSO.\nPeripheral blood mononuclear cells (PBMC) were isolated from the whole blood of healthy donors by Ficoll Hypaque gradient. […] After this 6 hour pretreatment period, the cells were stimulated with either LPS from Salmonella typhimirium, 10 ng/ml, for 24 hours (for TNF and IL-1β) or with PHA, 5 μg/ml, for 72 hours (for IFNγ) Viability of the PBMC was assessed with the MTT test.\nHuman PBMC were cultured and stimulated with or without CBD, as described in Materials and Methods. The stimulus for TNF and IL-1 production was LPS, the stimulus for IFNγ production was PHA. The results are the mean of triplicate wells±SEM. ND=not done."}, "serum TNFα": {"tested_on": "serum TNFα", "test": "serum TNFα level after LPS stimulation (bioassay)", "format": "in vivo, mouse (C57BL/6)", "details": "10 mg/kg (200 μg/mouse) ip or s.c. with 100 μg LPS ip; 90 min", "method": "After 90 min. the mice were bled and serum TNFα level was determined by bioassay."}, "[2]": {"tested_on": "spleen cells (splenocytes)", "test": "mitogen-induced cell proliferation of spleen cells", "format": "cell-based, mouse (BALB/c, C57BL/6)", "method": "Cultures were pulsed with ^3H-thymidine and harvested 6 hours later.\nFemale mice (aged 8-12 weeks) of strains C57BL/6 (B6, H-2^b) and BALB/c (H-2^d) were purchased from Harlan, Jerusalem, and maintained under specific pathogen-free (SPF) conditions in the animal facilities of the Hebrew University Medical School, Jerusalem, in accordance with the Hebrew University guidelines, DMEM (Biological Industries, Beit Haemek. Israel) was supplemented with 1 mM sodium pyruvate, 10 mM HEPES buffer, 0.5 mM asparagine-HCl, 0.03 mM filic acid, 0.5 mM L-aspartic acid, 5×10^−5M 2-mercaptoethanol, 2 mM glutamine, antibotics and 10% FCS (complete DMEM).\nSpleen cells, at a final concentration of 5×10^6 cells/ml, were cultured in triplicate wells of flat-bottom microtiter plates (Nunc, Denmark) in medium alone, 2.5 μg/ml concanavalin A (ConA. Biomakor, Israel) or 50 μ/ml lipopolysaccharide (LPS, Difco). The final volume was 200 μl/well. Following two days of incubation at 37° C., in an 8% CO2-in-air incubator (as in all other procedures described here), 1 μCi of ^3H-thymidine was added to each well. Cells were harvested 6 h later, with a Tomtec (USA) cell harvester and counted in a MicroBeta scintillation counter (Wallac, Finland)."}, "spleen cells": {"tested_on": "spleen cells", "test": "mixed leukocyte reaction (MLR)", "format": "cell-based, mouse (BALB/c)", "details": "above 4 μg/ml CBD", "method": "Cultures were pulsed with ^3H-thymidine and harvested 18 hours later.\nSpleen cells (1×10^6/well) were co-cultured in triplicate wells of flat-bottom microtiter plates (Nunc), with an equal number of irradiated ([…]) syngeneic or allogeneic splenocytes in a final volume of 200 μl/well. After 3-days incubation, the cells were labelled with ^3H-thymidine (1 μCi/well) and harvested, following an additional incubation of 18 h, as described above."}, "[3]": {"tested_on": "51Cr-labeled P815 lymphoma cell line", "test": "cell mediated cytotoxicity after mixed leukocyte culture", "format": "cell-based, mouse", "method": "Cells harvested from MLC were tested for their cytotoxic activity against ^51Cr-labeled P815 (H-2^d)lymphoma cell line. Cytotoxic activity is given in LU/10^6cells (see Materials and Methods).\nMHC-restricted CTL were activated in MLC by co-culturing 2.5×10^6 responding spleen cells for 5 days with an equal number of irradiated (25 Gy) allogeneic splenocytes in 2 ml/well of complete DMEM in 24-well plates (Costar).\nCytotoxic assays were performed as described previously (Leshem et al, 1999). Briefly, effector cells were serially diluted (threefold) in triplicate wells of conical-bottom microplates (Nunc) and mixed with washed ^51Cr-labeled target cells in a final 200 μl volume to make 4-6 effector target cell ratios. Microplates were centrifuged (70×g, 2 min.) and incubated for 4 h. They were then centrifuged at 200×g for 5 min. and the supernatants (150 μl) were counted in an automatic […] (LKB-Wallac, Finland). Percent of specific cytotoxic activity was calculated according to the formula: [(experimental cpm−background cpm)/(maximal cpm−background cpm)×100]. Lytic units (LU), were drawn from the cytotoxicity measured at 4-6 E:T cell ratios. One 1 LU is defined as the number of effector cells causing lysis of 30% target cells (Leshem and Brass, 1998)."}, "IL-8": {"tested_on": "IL-8", "test": "human rheumatoid synovial cell IL-8 production (ELISA)", "format": "cell-based", "details": "for IL-8, mean: 48 hours culture", "method": "(§1) Synovial membrane tissue was obtained from a patient fulfilling the revised American College of Rheumatology criteria for rheumatoid arthritis who underwent joint replacement surgery. Synovial cell cultures were prepared as described. Briefly, synovial membrane tissue was digested with collagenase type A (1 mg/ml) and DNAase I (0.15 mg/ml) in RPMI 1640 containing 5% FCS for 2 hours at 37° C.\n(§2) Similarly, rheumatoid synovial cells spontaneously produce cytokines when cultured in vitro. […] With restricted number of human synovial cells in this sample, the optimal dose for inhibiting TNFα may have been missed."}, "IL-11": {"tested_on": "IL-11", "test": "human rheumatoid synovial cell IL-11 production (ELISA)", "format": "cell-based", "details": "for IL-11, mean: 48 hours culture", "method": "as §1, §2"}, "CB2": {"target": "CB2 (Homo sapiens, UniProt P34972)", "sequence (P34972 whole entry, species assumed)": "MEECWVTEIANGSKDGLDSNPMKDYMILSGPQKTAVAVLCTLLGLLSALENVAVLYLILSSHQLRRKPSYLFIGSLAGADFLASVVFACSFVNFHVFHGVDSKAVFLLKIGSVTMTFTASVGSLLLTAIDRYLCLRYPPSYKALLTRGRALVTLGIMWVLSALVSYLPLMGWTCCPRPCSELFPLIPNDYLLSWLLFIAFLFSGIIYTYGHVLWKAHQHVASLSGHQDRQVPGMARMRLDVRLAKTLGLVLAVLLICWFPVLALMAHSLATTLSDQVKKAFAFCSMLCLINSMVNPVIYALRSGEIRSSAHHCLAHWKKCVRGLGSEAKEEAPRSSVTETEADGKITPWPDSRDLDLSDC", "details": "cited from earlier work"}, "anticonvulsant effects": {"tested_on": "anticonvulsant effects", "details": "in vivo; cited from earlier work"}, "schizophrenia": {"tested_on": "schizophrenia", "details": "in vivo; cited from earlier work"}, "[4]": {"tested_on": "mRNA of IL-1, IL-6 and TNFα", "details": "BALB/C mice injected with cannabidiol; cited from earlier work"}, "PBQ-induced writhing": {"tested_on": "PBQ-induced writhing", "details": "orally at doses up to 10 mg/kg; cited from earlier work"}, "nitric oxide (NO)": {"tested_on": "nitric oxide (NO)", "details": "macrophages activated by LPS and IFNγ; cited from earlier work"}, "IFNγ": {"tested_on": "IFNγ", "details": "cited from earlier work"}}, "note": "Entries after “also recorded” stand apart in the source; their conditions may differ."}
{"smiles": "C=C(C)[C@@H]1CCC(C)=C[C@H]1c1c(O)cc(CCCCC)cc1O", "note": "[CBD, Cannabidiol]", "values": [{"measurement": "viability of Mφ", "setting": "[1]", "value": "**After 48 hr the Mφ cultured with 8 μg/ml CBD were only 70% viable"}, {"measurement": "IFNγ", "setting": "IFNγ production; CBD 0.1 μg/ml", "value": "2062 ± 316", "unit": "pg/mL"}, {"measurement": "IFNγ", "setting": "IFNγ production; CBD 1 μg/ml", "value": "1082 ± 75", "unit": "pg/mL"}, {"measurement": "IFNγ", "setting": "IFNγ production; CBD 2.5 μg/ml", "value": "1171 ± 138", "unit": "pg/mL"}, {"measurement": "IFNγ", "setting": "IFNγ production; CBD 5 μg/ml", "value": "791 ± 43", "unit": "pg/mL"}, {"measurement": "IFNγ", "setting": "IFNγ production; CBD 10 μg/ml", "value": "150 ± 43", "unit": "pg/mL"}, {"measurement": "serum TNFα level (in words)", "setting": "serum TNFα", "value": "decreases serum TNFα production; also recorded: reduces serum TNFα levels"}, {"measurement": "response of splenocytes to Concanavalin A (ConA) and LPS (3H-thymidine)", "setting": "[2]; BALB/C splenocytes", "value": "decreases the response"}, {"measurement": "response of splenocytes to Concanavalin A (ConA) and LPS (3H-thymidine)", "setting": "[2]; C57BL/6 splenocytes", "value": "decreases the response"}, {"measurement": "3H-thymidine uptake in MLR", "setting": "spleen cells", "value": "slight decrease"}, {"measurement": "cell mediated cytotoxicity", "setting": "[3]; above approximately 1 μg/ml CBD", "value": "decrease in cytotoxicity"}, {"measurement": "cell mediated cytotoxicity", "setting": "[3]; low concentrations of CBD", "value": "increase cytotoxicity"}, {"measurement": "IL-8 release (in words)", "setting": "IL-8", "value": "dose-dependent inhibition"}, {"measurement": "IL-8, mean", "setting": "IL-8; CBD 0.1 μg/ml", "value": 174, "unit": "ng/mL"}, {"measurement": "IL-8, mean", "setting": "IL-8; CBD 1 μg/ml", "value": 183, "unit": "ng/mL"}, {"measurement": "IL-8, mean", "setting": "IL-8; CBD 20 μg/ml", "value": 87, "unit": "ng/mL"}, {"measurement": "IL-11 release (in words)", "setting": "IL-11", "value": "dose-dependent inhibition"}, {"measurement": "IL-11, mean", "setting": "IL-11; CBD 0.1 μg/ml", "value": 2151, "unit": "pg/mL"}, {"measurement": "IL-11, mean", "setting": "IL-11; CBD 1 μg/ml", "value": 2059, "unit": "pg/mL"}, {"measurement": "IL-11, mean", "setting": "IL-11; CBD 20 μg/ml", "value": 100, "unit": "pg/mL"}, {"measurement": "binding to peripheral receptor CB2", "setting": "CB2", "value": "does not bind"}, {"measurement": "anticonvulsant effects", "setting": "anticonvulsant effects", "value": "anticonvulsant effects"}, {"measurement": "antipsychotic effects in schizophrenia", "setting": "schizophrenia", "value": "antipsychotic effects"}, {"measurement": "level of mRNA of IL-1, IL-6 and TNFα", "setting": "[4]", "value": "did not show significant change"}, {"measurement": "PBQ-induced writhing", "setting": "PBQ-induced writhing", "value": "inhibited PBQ-induced writhing"}, {"measurement": "nitric oxide (NO) production", "setting": "nitric oxide (NO)", "value": "inhibited"}, {"measurement": "IFNγ synthesis", "setting": "IFNγ; high concentrations (5-24 μg/ml)", "value": "completely blocked IFNγ synthesis"}, {"measurement": "IFNγ production", "setting": "IFNγ; low concentrations", "value": "increase IFNγ production"}]}
